{
  "source": "patent US20070105825A1",
  "about": "“Concurrent drugs” (priority 2004, published 2007)",
  "key": {"[1]": {"test_system": "whole blood", "experiment": "Improvement effect on activated state of blood coagulation (activated whole blood clotting time, Hemochron)", "type": "cell-based, rabbit (Japanese White, male)", "settings": "rabbit whole blood; for significant prolonged effect on the activated whole blood clotting time to the control: independent use, 1 μM; for activated clotting time (mean ± S.E.): single application, antiplatelet drug 1 μM, control 218 ± 5.1", "method": "Citrate blood collected from a rabbit (Japanese White, male) was used for the test as the whole blood after maintaining room temperature for 30-60 minutes. 376 μL of the whole blood, 4 μL of a dimethylsulfoxide and 20 μL of a 250 mM calcium chloride solution were poured into a test tube for measurement of activated whole blood clotting time (Hemochron test tube P214, International Technidyne Corporation). After slight stirring of the mixture, an activated whole blood clotting time was measured by a blood clotting meter (Hemochron 801, International Technidyne Corporation) as the control."}, "[2]": {"test_system": "thrombus formation in abdominal aorta of rats", "experiment": "Inhibitory effect on thrombus formation (FeCl2-induced abdominal aorta thrombus, total protein content)", "type": "in vivo, rat (Sprague-Dawley, male)", "settings": "rat; for significant inhibitory effects on the thrombus formation compared with group A as control: alone: cilostazol 100 mg/kg oral or compound Id 3 mg/kg subcutaneous; for Total protein amount in thrombus: single application, control 1.52 ± 0.39", "method": "Rats (Sprague-Dawley rats, male) were divided into four groups of A, B, C and D. 0.5% methylcellulose solution was orally administrated into the rats of groups A and B, and cilostazol (100 mg/kg) was orally administrated into the rats of groups C and D. […] Simultaneously, the all rats of groups A-D were anesthetized by intraperitoneal injection of 5 mL/kg of 20% urethane solution. […] After removing of the filter paper, each rat was left at rest for additional 25 minutes. Then, the abdominal aorta was ligated at both upper and lower ends of the thrombus induction site. All the thrombus adhering to the inside of the excised abdominal aorta were harvested and dissolved in 1 mL of 0.5 N sodium hydroxide solution as the test solution. The total protein content in the test solution was measured using Coomasie Plus Protein Assay Kit (PIERCE Corp.) as the index of the thrombus formation."}},
  "data": [
    {"molecule": "CC(=O)Oc1ccccc1C(=O)O", "note": "[Aspirin, aspirin]", "values": [
      {"measurement": "significant prolonged effect on the activated whole blood clotting time to the control", "setting": "[1]", "result": "showed a significant prolonged effect"},
      {"measurement": "activated clotting time (mean ± S.E.)", "setting": "[1]", "result": "215 ± 16.3", "unit": "s"}
    ]},
    {"molecule": "O=C1CCc2cc(OCCCCc3nnnn3C3CCCCC3)ccc2N1", "note": "[Cilostazol, cilostazol]", "values": [
      {"measurement": "significant inhibitory effects on the thrombus formation compared with group A as control", "setting": "[2]", "result": "not observed"},
      {"measurement": "Total protein amount in thrombus", "setting": "[2]; cilostazol 100 mg/kg oral, n=3", "result": "1.39 ± 0.45", "unit": "mg"},
      {"measurement": "significant prolonged effect on the activated whole blood clotting time to the control", "setting": "[1]", "result": "showed a significant prolonged effect"},
      {"measurement": "activated clotting time (mean ± S.E.)", "setting": "[1]", "result": "205 ± 5.8", "unit": "s"}
    ]},
    {"molecule": "CS(=O)(=O)c1ccccc1-c1ccc(CCNS(=O)(=O)c2cc(C(=N)N)ccc2O)c(OCC(=O)O)c1", "note": "[Compound Id]", "values": [
      {"measurement": "significant inhibitory effects on the thrombus formation compared with group A as control", "setting": "[2]", "result": "not observed"},
      {"measurement": "Total protein amount in thrombus", "setting": "[2]; compound Id 3 mg/kg subcutaneous, n=4", "result": "0.94 ± 0.30", "unit": "mg"}
    ]},
    {"molecule": "OCCN(CCO)c1nc(N2CCCCC2)c2nc(N(CCO)CCO)nc(N3CCCCC3)c2n1", "note": "[Dipyridamole, dipyridamole]", "values": [
      {"measurement": "significant prolonged effect on the activated whole blood clotting time to the control", "setting": "[1]", "result": "showed a significant prolonged effect"},
      {"measurement": "activated clotting time (mean ± S.E.)", "setting": "[1]", "result": "210 ± 10.9", "unit": "s"}
    ]}
  ]
}
